Series [1] concerns MV4-11. As to the kind of experiment: Cell cycle arrest in human MV4-11 cells assessed as accumulation at G1 phase at 0.1 nM after 24 hrs by propidium iodide staining-based flow cytometric method (reference value: 56%). Format: functional. On the technique in general: Flow cytometry measures light scatter and fluorescence of single cells or particles in a stream.
The subject of the next series is MOLM-13. As to the kind of experiment: cells. The settings on record: Homo sapiens, MOLM-13, 72 h.
Series [2] relates to MV4-11. As to the kind of experiment: Cell cycle arrest in human MV4-11 cells assessed as accumulation at sub-G1 phase at 100 nM after 24 hrs by propidium iodide staining-based flow cytometric method (reference value: 9.2%). The series is classed as functional.
For series [3], the system named is MV4-11. The experiment in a line: Induction of apoptosis in human MV4-11 cells assessed as increase in caspase-3/7 activity using Ac-DEVD-AMC substrate after 24 hrs by fluorescence assay. The series is classed as functional, cell-based.
Another series concerns MCF7. As to the kind of experiment: cells. The settings on record: Homo sapiens, MCF7, 72 h.
In series [4] the test system is MV4-11. The experiment in a line: Induction of apoptosis in human MV4-11 cells assessed as decrease in Mcl-1 levels at 10 to 100 nM after 24 hrs by immunoblot method. Format: functional, cell-based. In general terms: A western blot detects proteins with antibodies after separation by electrophoresis.
Series [5] deals with Mast/stem cell growth factor receptor Kit (Homo sapiens), P10721 [D816V]. Conditions: 10 nM.
Description: Inhibition of human N-terminal GST-tagged KIT D816V mutant cytoplasmic domain expressed in baculovirus expression system at 10 nM relative to control
A further series is filed under the species Mus musculus. The experiment in a line: animal or person. Conditions: MV4-11, ip, 2 h, read-out: INH.
A short description of another series: in vitro. Conditions: mouse, BA/F3 cells.

Molecules are shown by their SMILES. Calls of active or inactive are those of the source. No cut-off for these calls is given here.

Chain of Mast/stem cell growth factor receptor Kit (Homo sapiens), P10721 [D816V] (P10721 whole entry D816V): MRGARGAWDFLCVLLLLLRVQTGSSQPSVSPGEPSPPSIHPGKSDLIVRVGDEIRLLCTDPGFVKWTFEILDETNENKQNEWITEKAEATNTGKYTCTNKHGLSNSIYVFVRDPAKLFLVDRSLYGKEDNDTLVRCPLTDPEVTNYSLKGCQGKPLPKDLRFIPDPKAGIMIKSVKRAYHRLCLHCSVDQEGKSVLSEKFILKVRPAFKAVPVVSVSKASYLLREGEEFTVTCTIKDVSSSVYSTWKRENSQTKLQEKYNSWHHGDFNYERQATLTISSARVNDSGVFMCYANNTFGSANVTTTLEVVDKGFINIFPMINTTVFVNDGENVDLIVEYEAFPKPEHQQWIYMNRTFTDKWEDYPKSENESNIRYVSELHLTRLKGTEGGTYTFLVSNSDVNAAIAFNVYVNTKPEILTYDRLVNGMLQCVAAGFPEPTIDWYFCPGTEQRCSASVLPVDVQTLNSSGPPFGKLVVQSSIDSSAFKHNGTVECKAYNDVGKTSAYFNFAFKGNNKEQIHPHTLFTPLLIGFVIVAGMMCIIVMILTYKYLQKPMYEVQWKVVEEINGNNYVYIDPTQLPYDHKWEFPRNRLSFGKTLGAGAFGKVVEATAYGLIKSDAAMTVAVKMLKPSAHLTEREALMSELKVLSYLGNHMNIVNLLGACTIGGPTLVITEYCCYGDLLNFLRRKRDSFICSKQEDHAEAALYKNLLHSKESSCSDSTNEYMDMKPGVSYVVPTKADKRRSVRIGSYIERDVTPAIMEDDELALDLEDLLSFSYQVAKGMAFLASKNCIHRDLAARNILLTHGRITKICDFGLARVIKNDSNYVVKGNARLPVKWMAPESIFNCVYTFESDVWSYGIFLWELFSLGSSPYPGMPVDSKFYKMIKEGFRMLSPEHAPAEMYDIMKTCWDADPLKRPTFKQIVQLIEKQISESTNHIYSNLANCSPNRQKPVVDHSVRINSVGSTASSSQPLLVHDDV

The GI50 is the concentration at which growth is held to half of that of the control. A lower GI50 goes with more potent growth inhibition. A word on the inhibition: it is the share of the control response that was lost under treatment. The low end stands for a weak effect, the high end for a strong effect. Regarding `N[C@H]1CC[C@H](Nc2nc(Nc3ccc(CN4CCOCC4)cc3)c3ncn(C4CCCC4)c3n2)CC1`, the Activity in the series on MV4-11 [1] was 59.7%; with MV4-11 [2] it was 45.9%. The concentration for 50% growth inhibition (GI50) in the series with MOLM-13 came to 1 nM; in the series with MCF7, 197 nM. For the same compound, the result in the series on MV4-11 [3] and with MV4-11 [4] was Active. The compound further displayed an inhibition in series [5] of more than 90%. The inhibition in vivo at 10 mg/kg in the series listed under Mus musculus is 95%. Moreover, halving of growth in the series “in vitro” (GI50 at 72 h) required 1140 nM.

Values taken from ChEMBL document CHEMBL4177767, “Discovery of N2-(4-Amino-cyclohexyl)-9-cyclopentyl- N6-(4-morpholin-4-ylmethyl-phenyl)- 9H-purine-2,6-diamine as a Potent FLT3 Kinase Inhibitor for Acute Myeloid Leukemia with FLT3 Mutations” (J Med Chem, 2018).
